According to patent publication US20120245078A1, “MEANS AND METHODS FOR TREATING ISCHEMIC CONDITIONS” (priority 2009, published 2012):

Legend:
[1] = tested on: focal cerebral ischemia (tMCAO); conditions: mice, 24 h after 60 min tMCAO; same doses; untreated control 48.3±16.7 or 56.6±10.0
Procedure: The intraluminal suture was left in situ for 60 minutes. Then animals were re-anesthetized and the occluding monofilament was withdrawn to allow reperfusion. […] Control mice (n=10) received 0.9% NaCl solution.
Control mice (n=10) received 0.9% NaCl solution.

[2] = tested on: traumatic brain injury (CCI); test: Controlled cortical impact (CCI) traumatic brain injury model; format: in vivo, mouse; conditions: mice, 24 h after CCI; given 30 min after CCI; bortezomib 0.2 mg/kg, dexamethasone 10 mg/kg; scale 0 to 10
Procedure: As is known in the art, the neurological severity score is a measure of neurological impairment and is quantified on a scale from 0 (no impairment) to 10 (maximum impairment). When determining the neurological severity score, primarily the motoric activity is assessed (walking on a bar, false steps, search or foraging, respectively, behaviour and the like).

occludin protein = test: Western blot and densitometry, occludin protein in cEND cells; format: cell-based, mouse; conditions: for occludin protein, of control: GR-K426A-transfected cEND cells, after O2/glucose deprivation
Procedure: (C)-(D) The influence of O2/glucose-deprivation on the tight junction proteins occludin and claudin-5 could be shown by Western Blot: for this, cells were seeded on plastic cell culture flasks coated with collagen IV, treated as indicated and subjected to SDS-gel electrophoresis and Western blotting. A four-hour exposure to O2/glucose-deprivation caused a significant (P<0.05) decrease in occludin protein to 82±3% as compared to the untreated control. […]. Comparably, O2/glucose-deprivation caused a significant (P<0.001) decrease in claudin-5 protein to 61±4% as compared to the untreated control. […]. (C) Effects of proteasomal inhibition on occludin protein levels were examined by western blot analysis and densitometric analysis.

claudin-5 protein = test: Western blot and densitometry, claudin-5 protein in cEND cells; format: cell-based, mouse; conditions: GR-K426A-transfected cEND cells, O2/glucose deprivation, presence of dexamethasone (K426A O2/glu depr+dex)
Procedure: (C)-(D) The influence of O2/glucose-deprivation on the tight junction proteins occludin and claudin-5 could be shown by Western Blot: for this, cells were seeded on plastic cell culture flasks coated with collagen IV, treated as indicated and subjected to SDS-gel electrophoresis and Western blotting. A four-hour exposure to O2/glucose-deprivation caused a significant (P<0.05) decrease in occludin protein to 82±3% as compared to the untreated control. […]. Comparably, O2/glucose-deprivation caused a significant (P<0.001) decrease in claudin-5 protein to 61±4% as compared to the untreated control. […].

GR protein = test: Western blot and densitometry, GR protein levels in cEND cells; format: cell-based, mouse; conditions: normoxia, 100 nM dexamethasone 24 h (normox+dex)
Procedure: (A) GR protein levels after O2/glucose-deprivation.
(§1) Electrophoresis and immunoblotting, quantitative real-time RT-PCR, transendothelial electrical resistance measurements, transfection and luciferase assay were performed following standard procedures.

cEND monolayers = test: Transendothelial electrical resistance (TER) of cEND monolayers, normoxia or O2/glucose deprivation; format: cell-based, mouse; conditions: GR-K426A-transfected cEND cells, after O2/glucose deprivation, without dexamethasone (K426A O2/glu depr)
Procedure: Growth medium (10% FCS) was changed after 5 days in culture to differentiation medium ([…], ±additions) and analysis of the TER was performed after O2/glucose-deprivation as indicated. […] Hek293 cells were maintained in DMEM, 10% FCS. […] We performed cell viability assays following standard procedures.
as §1

claudin-5 = test: Real time RT-PCR, claudin-5 gene expression in cEND cells; format: cell-based, mouse; conditions: introduction of GR-K426A
Procedure: (§2) Normox control (black bars), normox+dex (white bars), O2/glu depr (light grey bars), O2/glu depr+dex (dark grey bars).
as §1
(§3) At first, expression levels of genes encoding the tight junction proteins occludin, claudins-3, -5, -12 and the adherens junction protein, VE-cadherin, were assessed by real time RT-PCR (FIG. 2B).

VE-cadherin = test: Real time RT-PCR, VE-cadherin gene expression in cEND cells; format: cell-based, mouse; conditions: introduction of GR-K426A
Procedure: as §2, §1, §3

Molecule: CC(C)C[C@@H](NC(=O)[C@@H](Cc1ccccc1)NC(=O)c1cnccn1)B(O)O [bortezomib, [(1S)-3-methyl-1-[[(2R)-3-phenyl-2-(pyrazine-2-carbonylamino)propanoyl]amino]butyl]boronic acid]
- volume of Evan's blue extravasation (edema volume) [1]: no influence
- neurological severity score [2]: does not lead to any statistically significant improvement

Molecule: C[C@@H]1C[C@H]2[C@@H]3CCC4=CC(=O)C=C[C@]4(C)[C@@]3(F)[C@@H](O)C[C@]2(C)[C@@]1(O)C(=O)CO [dexamethasone]
- occludin protein, of control (occludin protein; dexamethasone (K426A O2/glu depr+dex)): 122±5%
- occludin protein content, of control (occludin protein; normoxia, dexamethasone): 120±7%
- claudin-5 protein level (claudin-5 protein): 44±11%
- GR protein, of untreated cells (GR protein): 66±2%

B1: GR-K426A: mutant murine glucocorticoid receptor, point mutation at lysine-426, resistant to proteasomal degradation, transfected into cEND cells (SEQ ID NOs: 3 and 4) (protein)
chain: MDSKESLAPPGRDEVPSSLLGRGRGSVMDLYKTLRGGATVKVSASSPSVAAASQADSKQQRILLDFSKGSASNAQQQQQQQQPQPDLSKAVSLSMGLYMGETETKVMGNDLGYPQQGQLGLSSGETDFRLLEESIANLNRSTSRPENPKSSTPAAGCATPTEKEFPQTHSDPSSEQQNRKSQPGTNGGSVKLYTTDQSTFDILQDLEFSAGSPGKETNESPWRSDLLIDENLLSPLAGEDDPFLLEGDVNEDCKPLILPDTKPKIQDTGDTILSSPSSVALPQVKTEKDDFIELCTPGVIKQEKLGPVYCQASFSGTNIIGNKMSAISVHGVSTSGGQMYHYDMNTASLSQQQDQKPVFNVIPPIPVGSENWNRCQGSGEDNLTSLGAMNFAGRSVFSNGYSSPGMRPDVSSPPSSSSTATGPPPALCLVCSDEASVCHYGVLTCGSCKVFFKRAVEGQHNYLCAGRNDCIIDKIRRKNCPACRYRKCLQAGMNLEARKTKKKIKGIQQATAGVSQDTSENANKTIVPAALPQLTPTLVSLLEVIEPEVLYAGYDSSVPDSAWRIMTTLNMLGGRQVIAAVKWAKAIPGFRNLHLDDQMTLLQYSWMFLMAFALGWRSYRQASGNLLCFAPDLIINEQRMTLPCMYDQCKHMLFISTELQRLQVSYEEYLCMKTLLLLSSVPKEGLKSQELFDEIRMTYIKELGKAIVKREGNSSQNWQRFYQLTKLLDSMHDVVENLLSYCFQTFLDKSMSIEFPEMLAEIITNQIPKYSNGNIKKLLFHQK
modifications: expressed in transfected cEND cells; mus musculus
- TER (cEND monolayers): 239+58 Ωcm^2
- claudin-5 gene expression level (claudin-5): not influenced
- VE-cadherin gene expression level (VE-cadherin): not influenced
- occludin protein, of control (occludin protein; without dexamethasone (K426A O2/glu depr)): 58±7%
